The values below are quoted from earlier work in publication PMC7473964, “Application of Pharmacokinetic-Pharmacodynamic Modeling to Inform Translation of In Vitro NaV1.7 Inhibition to In Vivo Pharmacological Response in Non-human Primate” (Pharmaceutical Research, 2020).

Each structure is given as a SMILES string.

For this data set, the system named is sense of smell (hyposmia) as biomarker of on-target NaV1.7 pharmacology. More on the design: method as in PMID 31172446. The note with it: healthy volunteers, first-in-human study.

Take `O=C(NS(=O)(=O)N1CCC1)c1cc(C2CC2)c(OCC23CC4CC(CC(C4)C2)C3)cc1F` [GDC-0276]: the “Hyposmia in clinical study” value is “a couple of incidents of hyposmia were reported”.
